# Source: US9150577B2, “Heterocyclic compounds containing an indole core” (Boehringer Ingelheim International GmbH, priority 2009, dated 2015)
# Biological target: Human RSK2 (Homo sapiens (Human), UniProt P51812)
# Assay: Human RSK2 assay (Kinase Glo Plus, residual ATP);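 also: recombinant human RSK2 phosphorylating a substrate peptide, 90 min at 28 °C, leftover ATP read by luminescence, RLU scaled between no-kinase background and uninhibited kinase controls, 4-parameter fit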
# Type: biochemical
# Sequence of Human RSK2 (P51812 whole entry): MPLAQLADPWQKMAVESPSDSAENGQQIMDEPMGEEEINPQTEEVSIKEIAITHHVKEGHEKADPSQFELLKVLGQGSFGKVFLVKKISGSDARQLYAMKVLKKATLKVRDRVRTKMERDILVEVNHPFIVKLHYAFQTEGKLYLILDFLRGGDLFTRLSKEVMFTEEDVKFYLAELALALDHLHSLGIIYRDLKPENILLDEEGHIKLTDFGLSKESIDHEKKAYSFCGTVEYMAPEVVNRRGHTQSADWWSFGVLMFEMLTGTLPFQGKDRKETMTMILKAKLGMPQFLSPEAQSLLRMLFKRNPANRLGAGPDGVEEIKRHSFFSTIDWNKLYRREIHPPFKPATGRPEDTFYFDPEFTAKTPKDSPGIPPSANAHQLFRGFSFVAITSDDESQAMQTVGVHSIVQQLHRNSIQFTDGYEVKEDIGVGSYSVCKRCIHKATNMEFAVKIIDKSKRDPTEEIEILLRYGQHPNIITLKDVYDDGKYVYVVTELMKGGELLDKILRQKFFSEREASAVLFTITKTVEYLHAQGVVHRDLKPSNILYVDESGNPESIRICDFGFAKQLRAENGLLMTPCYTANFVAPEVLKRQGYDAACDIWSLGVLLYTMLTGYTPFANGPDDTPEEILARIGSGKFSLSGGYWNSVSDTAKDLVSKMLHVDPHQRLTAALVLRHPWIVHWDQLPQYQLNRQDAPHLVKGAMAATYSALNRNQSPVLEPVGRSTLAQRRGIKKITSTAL
row,IC50 [µM],SMILES
1,0.0006,"C[C@@H]1CNC(=O)c2cc3ccc(C(=O)Nc4cnn(Cc5ccccc5)c4)cc3n21 [Example 130, (4R)-N-(1-benzyl-1H-pyrazol-4-yl)-4-methyl-1-oxo-1,2,3,4-tetrahydropyrazino[1,2-a]indole-7-carboxamide]"
2,0.017,"COc1cc(NC(=O)c2ccc3cc4n(c3c2)CCCNC4=O)ccn1 [Example 204, N-(2-methoxypyridin-4-yl)-1-oxo-2,3,4,5-tetrahydro-1H-[1,4]diazepino[1,2-a]indole-8-carboxamide]"
3,0.026,"O=C(Nc1cc(C2CC2)on1)c1ccc2cc3n(c2c1)CCCNC3=O [Example 183, N-(5-cyclopropyl-1,2-oxazol-3-yl)-1-oxo-2,3,4,5-tetrahydro-1H-[1,4]diazepino[1,2-a]indole-8-carboxamide]"
4,0.098,"O=C(Nc1nnc(Cc2ccccc2)s1)c1ccc2cc3n(c2c1)CCCNC3=O [Example 117, N-(5-benzyl-1,3,4-thiadiazol-2-yl)-1-oxo-2,3,4,5-tetrahydro-1H-[1,4]diazepino[1,2-a]indole-8-carboxamide]"
5,0.0345,"CCc1cc(NC(=O)c2ccc3cc4n(c3c2)CCCNC4=O)no1 [Example 181, N-(5-ethyl-1,2-oxazol-3-yl)-1-oxo-2,3,4,5-tetrahydro-1H-[1,4]diazepino[1,2-a]indole-8-carboxamide]"
6,0.0037,"Cn1cc(NC(=O)c2ccc3cc4n(c3c2)C(C)(C)CNC4=O)nc1C(=O)NC1CCCC1 [Example 233, N-[2-(cyclopentylcarbamoyl)-1-methyl-1H-imidazol-4-yl]-4,4-dimethyl-1-oxo-1,2,3,4-tetrahydropyrazino[1,2-a]indole-7-carboxamide]"
7,4.1,"Cc1ccc(-c2cccc(NC(=O)c3ccc4cc5n(c4c3)CCCNC5=O)c2)s1 [Example 228, N-[3-(5-methylthiophen-2-yl)phenyl]-1-oxo-2,3,4,5-tetrahydro-1H-[1,4]diazepino[1,2-a]indole-8-carboxamide]"
8,0.19,"COc1cccc(NC(=O)c2ccc3cc4n(c3c2)CCCNC4=O)c1 [Example 148, N-(3-methoxyphenyl)-1-oxo-2,3,4,5-tetrahydro-1H-[1,4]diazepino[1,2-a]indole-8-carboxamide]"
9,0.67,"Cc1cc(NC(=O)c2ccc3cc4n(c3c2)CC(F)(F)CNC4=O)no1 [Example 167, 4,4-difluoro-N-(5-methyl-1,2-oxazol-3-yl)-1-oxo-2,3,4,5-tetrahydro-1H-[1,4]diazepino[1,2-a]indole-8-carboxamide]"
10,0.034,"O=C(Nc1cnc2ccccc2c1)c1ccc2cc3n(c2c1)CCCNC3=O [Example 190, 1-oxo-N-(quinolin-3-yl)-2,3,4,5-tetrahydro-1H-[1,4]diazepino[1,2-a]indole-8-carboxamide]"
11,0.0021,"CC1CCNC(=O)c2cc3ccc(C(=O)Nc4cn(C)c(C(=O)NC5CCCC5)n4)cc3n21 (stereo not drawn) [Example 234, N-[2-(cyclopentylcarbamoyl)-1-methyl-1H-imidazol-4-yl]-5-methyl-1-oxo-2,3,4,5-tetrahydro-1H-[1,4]diazepino[1,2-a]indole-8-carboxamide]"
12,0.008,"CC1CNC(=O)c2cc3ccc(C(=O)Nc4cc5ccccc5[nH]4)cc3n21 (stereo not drawn) [Example 177, N-(1H-indol-2-yl)-4-methyl-1-oxo-1,2,3,4-tetrahydropyrazino[1,2-a]indole-7-carboxamide]"
13,6,"O=C(Nc1ccccc1Cl)c1ccc2cc3n(c2c1)CCCNC3=O [Example 216, N-(2-chlorophenyl)-1-oxo-2,3,4,5-tetrahydro-1H-[1,4]diazepino[1,2-a]indole-8-carboxamide]"
14,0.032,"O=C(Nc1cnn(Cc2ccccc2)c1)c1ccc2cc3n(c2c1)CC(F)(F)CNC3=O [Example 115, N-(1-benzyl-1H-pyrazol-4-yl)-4,4-difluoro-1-oxo-2,3,4,5-tetrahydro-1H-[1,4]diazepino[1,2-a]indole-8-carboxamide]"
15,0.154,"CNC(=O)c1ccccc1NC(=O)c1ccc2cc3n(c2c1)CCCNC3=O [Example 229, N-[2-(methylcarbamoyl)phenyl]-1-oxo-2,3,4,5-tetrahydro-1H-[1,4]diazepino[1,2-a]indole-8-carboxamide]"
16,0.0066,"Cc1cc(NC(=O)c2ccc3cc4n(c3c2)[C@H](C)CNC4=O)no1 [Example 128, (4R)-4-methyl-N-(5-methyl-1,2-oxazol-3-yl)-1-oxo-1,2,3,4-tetrahydropyrazino[1,2-a]indole-7-carboxamide]"
17,0.016,"CCCc1cc(NC(=O)c2ccc3cc4n(c3c2)CCCNC4=O)on1 [Example 202, 1-oxo-N-(3-propyl-1,2-oxazol-5-yl)-2,3,4,5-tetrahydro-1H-[1,4]diazepino[1,2-a]indole-8-carboxamide]"
18,0.034,"Cc1cc(NC(=O)c2ccc3cc4n(c3c2)C(C)CNC4=O)no1 (stereo not drawn) [Example 174, 4-methyl-N-(5-methyl-1,2-oxazol-3-yl)-1-oxo-1,2,3,4-tetrahydropyrazino[1,2-a]indole-7-carboxamide]"
19,0.023,"CN(C)CCCn1c(NC(=O)c2ccc3cc4n(c3c2)CC(F)(F)CNC4=O)nc2ccccc21 [Example 121, N-{1-[3-(dimethylamino)propyl]-1H-benzimidazol-2-yl}-4,4-difluoro-1-oxo-2,3,4,5-tetrahydro-1H-[1,4]diazepino[1,2-a]indole-8-carboxamide]"
20,0.00071,"C[C@@H]1CCNC(=O)c2cc3ccc(C(=O)Nc4cnn(Cc5ccccc5)c4)cc3n21 [Example 143, (5R)-N-(1-benzyl-1H-pyrazol-4-yl)-5-methyl-1-oxo-2,3,4,5-tetrahydro-1H-[1,4]diazepino[1,2-a]indole-8-carboxamide]"
21,0.01,"CC1CCNC(=O)c2cc3ccc(C(=O)Nc4cnn(C)c4)cc3n21 (stereo not drawn) [Example 164, 5-methyl-N-(1-methyl-1H-pyrazol-4-yl)-1-oxo-2,3,4,5-tetrahydro-1H-[1,4]diazepino[1,2-a]indole-8-carboxamide]"

# Second part, the compound before the results:
row,SMILES,IC50 [µM]
1,"N#Cc1cccc(NC(=O)c2ccc3cc4n(c3c2)CCCNC4=O)c1 [Example 6, N-(3-cyanophenyl)-1-oxo-2,3,4,5-tetrahydro-1H-[1,4]diazepino[1,2-a]indole-8-carboxamide]",0.14
2,"O=C(Nc1nc2ccccc2n1CCN1CCOCC1)c1ccc2cc3n(c2c1)CCCNC3=O [Example 104, N-{1-[2-(morpholin-4-yl)ethyl]-1H-benzimidazol-2-yl}-1-oxo-2,3,4,5-tetrahydro-1H-[1,4]diazepino[1,2-a]indole-8-carboxamide]",0.054
3,"C[C@H]1NC(=O)c2cc3ccc(C(=O)Nc4cnn(C)c4)cc3n2[C@H]1C (relative stereo) [Example 21, cis-3,4-dimethyl-N-(1-methyl-1H-pyrazol-4-yl)-1-oxo-1,2,3,4-tetrahydropyrazino[1,2-a]indole-7-carboxamide]",0.0043
4,"O=C(Nc1nc2cc(C(F)(F)F)ccc2[nH]1)c1ccc2cc3n(c2c1)CCCNC3=O [Example 43, 1-oxo-N-[5-(trifluoromethyl)-1H-benzimidazol-2-yl]-2,3,4,5-tetrahydro-1H-[1,4]diazepino[1,2-a]indole-8-carboxamide]",0.024
5,"O=C(Nc1cn[nH]c1)c1ccc2cc3n(c2c1)CCCNC3=O [Example 15, 1-oxo-N-(1H-pyrazol-4-yl)-2,3,4,5-tetrahydro-1H-[1,4]diazepino[1,2-a]indole-8-carboxamide]",0.043
6,"Cc1cnc(NC(=O)c2ccc3cc4n(c3c2)CCCNC4=O)s1 [Example 106, N-(5-methyl-1,3-thiazol-2-yl)-1-oxo-2,3,4,5-tetrahydro-1H-[1,4]diazepino[1,2-a]indole-8-carboxamide]",0.3
7,"CC(=O)N1CCC(n2c(NC(=O)c3ccc4cc5n(c4c3)CCCNC5=O)nc3ccccc32)CC1 [Example 78, N-[1-(1-acetylpiperidin-4-yl)-1H-benzimidazol-2-yl]-1-oxo-2,3,4,5-tetrahydro-1H-[1,4]diazepino[1,2-a]indole-8-carboxamide]",0.058
8,"CC(C)(C)c1cc(NC(=O)c2ccc3cc4n(c3c2)CCCNC4=O)sn1 [Example 3, N-(3-tert-butyl-1,2-thiazol-5-yl)-1-oxo-2,3,4,5-tetrahydro-1H-[1,4]diazepino[1,2-a]indole-8-carboxamide]",0.24
9,"Cn1cc(NC(=O)c2ccc3cc4n(c3c2)CC2(CCC2)CNC4=O)cn1 [Example 24, N-(1-methyl-1H-pyrazol-4-yl)-1′-oxo-2′,3′-dihydro-1′H-spiro[cyclobutane-1,4′-[1,4]diazepino[1,2-a]indole]-8′-carboxamide]",0.32
10,"CC(C)c1ccc2[nH]c(NC(=O)c3ccc4cc5n(c4c3)CCCNC5=O)nc2c1 [Example 42, 1-oxo-N-[5-(propan-2-yl)-1H-benzimidazol-2-yl]-2,3,4,5-tetrahydro-1H-[1,4]diazepino[1,2-a]indole-8-carboxamide]",0.0062
11,"COCCn1cc(NC(=O)c2ccc3cc4n(c3c2)CCCNC4=O)cn1 [Example 38, N-[1-(2-methoxyethyl)-1H-pyrazol-4-yl]-1-oxo-2,3,4,5-tetrahydro-1H-[1,4]diazepino[1,2-a]indole-8-carboxamide]",0.019
12,"Cc1cc(NC(=O)c2ccc3cc4n(c3c2)CCCNC4=O)no1 [Example 2, N-(5-methyl-1,2-oxazol-3-yl)-1-oxo-2,3,4,5-tetrahydro-1H-[1,4]diazepino[1,2-a]indole-8-carboxamide]",0.03
13,"Cc1ccccc1Cn1cc(NC(=O)c2ccc3cc4n(c3c2)CCCNC4=O)cn1 [Example 34, N-[1-(2-methylbenzyl)-1H-pyrazol-4-yl]-1-oxo-2,3,4,5-tetrahydro-1H-[1,4]diazepino[1,2-a]indole-8-carboxamide]",0.0079
14,"CC1CNC(=O)c2cc3ccc(C(=O)Nc4nc5ccccc5n4C)cc3n2C1 (stereo not drawn) [Example 62, 4-methyl-N-(1-methyl-1H-benzimidazol-2-yl)-1-oxo-2,3,4,5-tetrahydro-1H-[1,4]diazepino[1,2-a]indole-8-carboxamide]",0.0082
15,"CN(C)CCCn1c(NC(=O)c2ccc3cc4n(c3c2)CC2(CCC2)CNC4=O)nc2ccccc21 [Example 97, N-{1-[3-(dimethylamino)propyl]-1H-benzimidazol-2-yl}-1′-oxo-2′,3′-dihydro-1′H-spiro[cyclobutane-1,4′-[1,4]diazepino[1,2-a]indole]-8′-carboxamide]",0.011
